Each structure is given as a SMILES string. Where a name gives a salt, the structure may show the parent alone.

In one test the test system is Plasmodium falciparum 3D7 strain. Description: P. falciparum 3D7 asexual blood stage assay (SYBR green readout). It is filed as cell-based. Particulars: Plasmodium falciparum, 3D7, Erythrocyte, 72 h. A digest of the protocol:
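P. falciparum 3D7 in A+ erythrocytes (5% haematocrit, 0.5% parasitaemia) exposed 72 h at 37 °C under 1% O2/3% CO2 to 20-point 1.5-fold titrations, 50,000–15 nM in 0.5% DMSO. SYBR green lysis overnight, fluorescence 485/528 nm; normalized to mefloquine and DMSO, EC50 from biphasic two-site fit.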
In the case of `C[C@@H]1C[C@H](N2C(=N)N[C@](C)(c3cccc(NC(=O)c4cccnc4C4CC4)c3Cl)CC2=O)CCO1` (relative stereo) [Example 57, N-(2-Chloro-3-{(4S)-2-imino-4-methyl-1-[(2R*,4R*)-2-methyl-tetrahydropyran-4-yl]-6-oxo-hexahydropyrimidin-4-yl]phenyl)-2-cyclopropylpyridine-3-carboxamide hydrochloride], 476 nM corresponded to half-maximal inhibition (IC50).
The same measure, in the same setting: as for `C[C@@H]1C[C@H](N2C(=N)N[C@](C)(c3cccc(NC(=O)c4ccc(OCC(F)(F)F)nc4)c3Cl)CC2=O)CCO1` (relative stereo) [Example 58, N-(2-Chloro-3-{(4S)-2-imino-4-methyl-1-[(2R*,4R*)-2-methyl-tetrahydropyran-4-yl]-6-oxo-hexahydropyrimidin-4-yl]phenyl)-6-(2,2,2-trifluoroethoxy)pyridine-3-carboxamide hydrochloride], the figure is 438 nM.
The same measure, in the same setting: next, `C[C@@H]1C[C@H](N2C(=N)N[C@](C)(c3cccc(NC(=O)c4ccc(C(F)(F)F)nn4)c3Cl)CC2=O)CCO1` (relative stereo) [Example 59, N-(2-Chloro-3-{(4S)-2-imino-4-methyl-1-[(2R*,4R*)-2-methyl-tetrahydropyran-4-yl]-6-oxo-hexahydropyrimidin-4-yl]phenyl)-6-(trifluoromethyl)pyridazine-3-carboxamide hydrochloride]: 114 nM; `C[C@@H]1C[C@H](N2C(=N)N[C@](C)(c3cccc(NC(=O)c4cccnc4C(F)(F)F)c3Cl)CC2=O)CCO1` (relative stereo) [Example 61, N-(2-Chloro-3-{(4S)-2-imino-4-methyl-1-[(2R*,4R*)-2-methyl-tetrahydropyran-4-yl]-6-oxo-hexahydropyrimidin-4-yl}phenyl)-2-(trifluoromethyl)pyridine-3-carboxamide hydrochloride]: 442 nM; `C[C@@H]1C[C@H](N2C(=N)N[C@](C)(c3cccc(NC(=O)c4nnc5ccccn45)c3Cl)CC2=O)CCO1` (relative stereo) [Example 62, N-(2-Chloro-3-{(4S)-2-imino-4-methyl-1-[(2R*,4R*)-2-methyl-tetrahydropyran-4-yl]-6-oxo-hexahydropyrimidin-4-yl]phenyl)-[1,2,4]triazolo[4,3-a]pyridine-3-carboxamide hydrochloride]: 23 nM.
Same read-out and setting: as for `C[C@@H]1C[C@H](N2C(=N)N[C@](C)(c3cccc(NC(=O)c4ccc(Cl)cn4)c3Cl)CC2=O)CCO1` (relative stereo) [Example 63, 5-Chloro-N-(2-chloro-3-{(4S)-2-imino-4-methyl-1-[(2R*,4R*)-2-methyltetrahydropyran-4-yl]-6-oxo-hexahydropyrimidin-4-yl]phenyl)-pyridine-2-carboxamide hydrochloride], the figure is 41 nM; as for `C[C@@H]1C[C@H](N2C(=N)N[C@](C)(c3cccc(NC(=O)c4ncc5ccccn45)c3Cl)CC2=O)CCO1` (relative stereo) [Example 65, N-(2-Chloro-3-{(4S)-2-imino-4-methyl-1-[(2R*,4R*)-2-methyl-tetrahydropyran-4-yl]-6-oxo-hexahydropyrimidin-4-yl]phenyl)-imidazo[1,5-a]pyridine-3-carboxamide hydrochloride], 51 nM; as for `Cc1cncc(C(=O)Nc2cccc([C@]3(C)CC(=O)N([C@@H]4CCO[C@H](C)C4)C(=N)N3)c2Cl)n1` (relative stereo) [Example 66, N-(2-Chloro-3-{(4S)-2-imino-4-methyl-1-[(2R*,4R*)-2-methyl-tetrahydropyran-4-yl]-6-oxo-hexahydropyrimidin-4-yl}phenyl)-6-methylpyrazine-2-carboxamide hydrochloride], 92 nM.
Consider `C[C@@H]1C[C@H](N2C(=N)NC(C)(c3cccc(NC(=O)c4ccc(Cl)cc4F)c3Cl)CC2=O)CCO1` (relative stereo) [Example 67, 4-Chloro-N-(2-chloro-3-{(4S)-2-imino-4-methyl-1-[(2R*,4R*)-2-methyltetrahydropyran-4-yl]-6-oxo-hexahydropyrimidin-4-yl}phenyl)-2-fluorobenzamide hydrochloride], for which the IC50 was 26 nM.
Still for that read-out and setting: next, `COc1cncc(C(=O)Nc2cccc([C@]3(C)CC(=O)N([C@@H]4CCO[C@H](C)C4)C(=N)N3)c2Cl)n1` (relative stereo) [Example 68, N-(2-Chloro-3-{(4S)-2-imino-4-methyl-1-[(2R*,4R*)-2-methyl-tetrahydropyran-4-yl]-6-oxo-hexahydropyrimidin-4-yl}phenyl)-6-methoxypyrazine-2-carboxamide hydrochloride]: 11 nM.
On the same count and under the same terms, next, `C[C@@H]1C[C@H](N2C(=N)N[C@](C)(c3cccc(NC(=O)c4cc(Cl)c(F)cc4F)c3Cl)CC2=O)CCO1` (relative stereo) [Example 69, 5-Chloro-N-(2-chloro-3-{(4S)-2-imino-4-methyl-1-[(2R*,4R*)-2-methyltetrahydropyran-4-yl]-6-oxo-hexahydropyrimidin-4-yl}phenyl)-2,4-difluorobenzamide hydrochloride]: 25 nM; `C[C@@H]1C[C@H](N2C(=N)N[C@](C)(c3cccc(NC(=O)c4cncc(C(F)(F)F)c4)c3Cl)CC2=O)CCO1` (relative stereo) [Example 70, N-(2-Chloro-3-{(4S)-2-imino-4-methyl-1-[(2R*,4R*)-2-methyl-tetrahydropyran-4-yl]-6-oxo-hexahydropyrimidin-4-yl}phenyl)-5-(trifluoromethyl)pyridine-3-carboxamide hydrochloride]: 36 nM; `C[C@@H]1C[C@H](N2C(=N)N[C@](C)(c3cccc(NC(=O)c4ccc(F)c(Cl)c4F)c3Cl)CC2=O)CCO1` (relative stereo) [Example 71, 3-Chloro-N-(2-chloro-3-{(4S)-2-imino-4-methyl-1-[(2R*,4R*)-2-methyltetrahydropyran-4-yl]-6-oxo-hexahydropyrimidin-4-yl}phenyl)-2,4-difluorobenzamide hydrochloride]: 26 nM.
Still for that read-out and setting: as for `C[C@@H]1C[C@H](N2C(=N)N[C@](C)(c3cccc(NC(=O)c4cccc(C#N)n4)c3Cl)CC2=O)CCO1` (relative stereo) [Example 72, N-(2-Chloro-3-{(4S)-2-imino-4-methyl-1-[(2R*,4R*)-2-methyl-tetrahydropyran-4-yl]-6-oxo-hexahydropyrimidin-4-yl}phenyl)-6-cyanopyridine-2-carboxamide hydrochloride], the figure is 14 nM.

Still in this test, the particulars now being: Plasmodium falciparum, Erythrocyte; P. falciparum 3D7 in human erythrocytes, 72 h incubation, SYBR green fluorescence; read-out: IC50.
Regarding `C[C@@H]1C[C@H](N2C(=N)N[C@](C)(c3cccc(NC(=O)c4ncn5ccccc45)c3Cl)CC2=O)CCO1` (relative stereo) [Example 60, N-(2-Chloro-3-{(4S)-2-imino-4-methyl-1-[(2,R*,4R*)-2-methyl-tetrahydropyran-4-yl]-6-oxo-hexahydropyrimidin-4-yl}phenyl)-imidazo[1,5-a]pyridine-1-carboxamide hydrochloride], the IC50 was 122 nM.
Still for that read-out and setting: next, `C[C@@H]1C[C@H](N2C(=N)N[C@](C)(c3cccc(NC(=O)c4cc(F)c(F)cc4F)c3Cl)CC2=O)CCO1` (relative stereo) [Example 64, N-(2-Chloro-3-{(4S)-2-imino-4-methyl-1-[(2,R*,4R*)-2-methyl-tetrahydropyran-4-yl]-6-oxo-hexahydropyrimidin-4-yl}phenyl)-2,4,5-trifluorobenzamide hydrochloride]: 13 nM.

These data come from US20220289685A1, “ANTIMALARIAL HEXAHYDROPYRIMIDINE ANALOGUES” (UCB BIOPHARMA SRL, priority 2019, published 2022).
